Converted amounts (≈) assume the structure as drawn.
Experiments:
cervical cancer HeLa = test system: cervical cancer HeLa; set-up: method as in PMID 28669347; settings: cited from earlier work
glioblastoma U87 = test system: glioblastoma U87; set-up: method as in PMID 28669347; settings: cited from earlier work
Balb-3T3 mice fibroblast = assay: MTT cell viability assay, Balb-3T3; format: cell-based; settings: Mus musculus, MTT test, 72 h of action, read-out: IC50, Pseudo-Normal Cell Lines, Balb-3T3 Mice Fibroblast
Description: (§1) The MTT cell viability assay was performed according to a previously reported protocol. Briefly, adherent cells were seeded at a density of 5000 cells per 100 µL, and suspension cells at 25,000 cells per 100 µL, in 96-well plates and incubated overnight. Subsequently, test compounds were added in 100 µL of culture medium, followed by incubation for 72 h. After treatment, 20 µL of MTT solution (5 mg/mL, Sigma-Aldrich, Burlington, MA, USA) was added to each well. The resulting formazan crystals were dissolved in DMSO (Sigma-Aldrich, Burlington, MA, USA), and absorbance was recorded using a BioTek ELx800 Absorbance Reader (BioTek Instruments, Inc., Vinooski, VT, USA). IC50 values were calculated by nonlinear regression analysis using GraphPad Prism (version 9.1.1, GraphPad Software, Boston, MA, USA). Experiments were conducted in triplicate. Human leukemia Jurkat T-cells, human glioblastoma U251 cells were kindly provided by Collection at the Institute of Molecular Biology and Genetics, National Academy of Sciences of Ukraine (Kyiv, Ukraine). Murine macrophages of J774.2 line were a generous gift from Prof. Sir John Vane (William Harvey Research Institute, London, UK) provided via Prof. Janusz Marcinkiewicz (Jagiellonian University Medical College, Krakow, Poland). Human colorectal adenocarcinoma cell line HT-29 was kindly provided by Prof. Anna Bielawska (Department of Biotechnology, Faculty of Pharmacy, Medical University of Bialystok, Poland). Murine BALB/3T3 fibroblasts was obtained from the Cell Collection of the R.E. Kavetsky Institute of Experimental Pathology, Oncology and Radiobiology (Kyiv, Ukraine).

[1] = test system: Jurkat human acute T-cell leukaemia; assay: MTT cell viability assay, Jurkat; format: cell-based; settings: MTT test, 72 h of action, read-out: IC50, Tumour Cell Lines, Jurkat Human Acute T-Cell Leukaemia
Description: as §1

[2] = test system: HT-29 human colorectal carcinoma; assay: MTT cell viability assay, HT-29; format: cell-based; settings: MTT test, 72 h of action, read-out: IC50, Tumour Cell Lines, HT-29 Human Colorectal Carcinoma
Description: as §1

[3] = test system: U251 human malignant glioblastoma; assay: MTT cell viability assay, U251; format: cell-based; settings: U-251, MTT test, 72 h of action, read-out: IC50, Tumour Cell Lines, U251 Human Malignant Glioblastoma
Description: as §1

[4] = test system: J744.2 mice macrophage-like cells; assay: MTT cell viability assay, J744.2; format: cell-based; settings: Mus musculus; MTT test, 72 h of action; read-out: IC50, Pseudo-Normal Cell Lines, J744.2 Mice Macrophage-Like Cells
Description: as §1

[5] = test system: ovarian cancer 2D culture; set-up: method as in PMID 27585955; settings: 2D culture and liposomal drug delivery system; cited from earlier work
SK-OV-3 (3D model) = test system: SK-OV-3 (3D model); set-up: method as in PMID 27585955; settings: 3D spheroid model; cited from earlier work
[6] = test system: patient P3 cell lines (3D model, patient-derived ovarian cancer); set-up: method as in PMID 27585955; settings: 3D spheroid model; cited from earlier work
salmon sperm DNA = assay: DNA intercalation assay (methyl green displacement method); format: binding; settings: 1 and 10 μM; for percentage of methyl green dye replaced from its complex with DNA: range over both doses; for affinity for DNA: methyl green displacement, in words
Description: To investigate the potential mechanisms of cell death induced by the studied derivative, we evaluated apoptosis using the fluorescence microscopy of cells stained with Hoechst-33342 and Ethidium Bromide (EtBr), as well as spectroscopic and DNA/methyl green displacement assays. Methyl green is a cationic dye that binds preferentially to the phosphate backbone of DNA (primarily in the major groove). If a compound (an intercalator or groove-binding agent) is added, it can compete with methyl green for binding to DNA. The higher the percentage of substituted methyl green, the stronger the compound interacts with DNA. Intercalation is the key feature of clinically used antitumor drugs, e.g., doxorubicin (DOX). DOX displaced 41.62–45.52% of methyl green from its complex with DNA (Figure 10). Another intercalator, EtBr, replaced 42.12–47.35% of methyl green from its complex with DNA.
A 485 μL aliquot of salmon sperm DNA (50 μg/mL, Sigma-Aldrich, Burlington, MA, USA) was incubated with 15 μL of methyl green solution (1 mg/mL, Sigma-Aldrich, Burlington, MA, USA) at 37 °C for 1 h. Subsequently, 500 μL of the test compounds, doxorubicin, or ethidium bromide (each at final concentrations of 1 μM and 10 μM) was added to the preformed methyl green–DNA complex. The samples were further incubated at 37 °C for 2 h in the dark. Absorbance was then recorded at 630 nm. GraphPad Prism (version 9.1.1, GraphPad Software, Boston, MA, USA) was used for the results analysis. Experiments were conducted in triplicate. Doxorubicin and ethidium bromide were purchased from Sigma-Aldrich, USA.

Jurkat cells = assay: Fluorescent microscopy of Jurkat cells (Hoechst 33342/EtBr staining); format: cell-based, human; settings: 0.5 µM, 24 h
Description: Jurkat cells were seeded in 24-well plates at a density of 250,000 cells/mL and incubated overnight prior to treatment. Cells were then treated for 24 h with compounds 4, 7, and 8 (0.5 µM) or doxorubicin (0.5 µM) as a positive control. Following treatment, cells were stained with Hoechst 33342 (0.2–0.5 µg/mL; Sigma-Aldrich, USA) and ethidium bromide (EtBr, 1 µg/mL). Fluorescence imaging was performed using a LIM-400 microscope (LABEX INSTRUMENT LIMITED, Ningbo, China) equipped with an MTR3CCD camera. Images were captured and analysed using ImageView software (version 4.11.21522.20221011).

[7] = test system: HeLa, MDA-MB-231, and MCF-7; set-up: method as in PMID 32171988; settings: in words; cited from earlier work
lung-NSC NCI-H460 = test system: lung-NSC NCI-H460; set-up: method as in PMID 15943482; settings: cited from earlier work
prostate DU-145 = test system: prostate DU-145; set-up: method as in PMID 15943482; settings: cited from earlier work
neuroblast SK-N-SH = test system: neuroblast SK-N-SH; set-up: method as in PMID 15943482; settings: cited from earlier work
pancreas BXPC-3 = test system: pancreas BXPC-3; set-up: method as in PMID 15943482; settings: cited from earlier work
[8] = test system: Staphylococcus aureus 209P; set-up: method as in PMID 37298957; settings: in words; cited from earlier work
[9] = test system: human lung cancer cells (A549); set-up: method as in PMID 15464834, doi:10.1177/1934578X0700200419; settings: read-out: IC50 in cultured human lung cancer cells (A549); cited from earlier work
Mucor indicus = test system: Mucor indicus; set-up: method as in PMID 30790326; settings: cited from earlier work
P450 CYP1B1 isoform = test system: P450 CYP1B1 isoform; set-up: method as in PMID 28632937; settings: read-out: IC50 against the P450 CYP1B1 isoform; cited from earlier work

| Molecule | IC50 (Balb-3T3 mice fibroblast) | IC50 [1] | IC50 [2] | IC50 [3] | IC50 [4] | other results |
| --- | --- | --- | --- | --- | --- | --- |
| COc1ccc(/C=C/c2ccc([N+](=O)[O-])cc2[N+](=O)[O-])c(O)c1 [VIII, 2-hydroxy-4-methoxy-2′,4′-ditro-trans-stilbene] | – | – | – | – | – | IC50 (cervical cancer HeLa): 6.97 µM; IC50 (glioblastoma U87): 55.8 µM |
| COc1cc(/C=C/c2cc(OC)c(OC)c(OC)c2)cc(Br)c1OC [Compound 2, 3-bromo-3′,4′,5′,4,5-pentamethoxy-trans-stilbene] | 72.8 µM | > 100 µM | > 100 µM | > 100 µM | 7.93 µM | – |
| 3-hydroxy-3,4,5,4′-tetramethoxy-trans-stilbene [DMU-214] | – | – | – | – | – | IC50 [5]: 0.022 µM; IC50 (SK-OV-3 (3D model)): 2.9 to 14.1 µM; IC50 [6]: 0.5 to 22.9 µM |
| CC[n+]1c(-c2ccccc2)c2cc(N)ccc2c2ccc(N)cc21 [EtBr, Ethidium Bromide, reference compound] | – | – | – | – | – | percentage of methyl green dye replaced from its complex with DNA (salmon sperm DNA): 42.12–47.35% |
| COc1cccc2c1C(=O)c1c(O)c3c(c(O)c1C2=O)C[C@@](O)(C(=O)CO)C[C@@H]3O[C@H]1C[C@H](N)[C@H](O)[C@H](C)O1 [DOX, doxorubicin, reference compound] | – | – | – | – | – | percentage of methyl green dye replaced from its complex with DNA (salmon sperm DNA): 41.62–45.52%; effect on cell morphology and viability (apoptosis, chromatin condensation, DNA fragmentation) (Jurkat cells): elicited a similar morphological disruption and chromatin fragmentation as compound 8 did |
| COc1ccc(/C=C/c2cc(OC)c(OC)c(OC)c2)cc1OC [Compound 8, 3,3′,4,4’,5-pentamethoxy-trans-stilbene] | 5.04 µM | 0.82 µM | > 100 µM | > 100 µM | 3.83 µM | percentage of methyl green dye replaced from its complex with DNA (salmon sperm DNA): 1.87–5.98%; affinity for DNA (salmon sperm DNA): low affinity for DNA; effect on cell morphology and viability (apoptosis, chromatin condensation, DNA fragmentation) (Jurkat cells): induced moderate apoptosis |
| COc1ccc(/C=C/c2cc(OC)c(OC)c(OC)c2)cc1 [Compound 7, 3,4,5,4′-tetramethoxy-trans-stilbene] | 2.79 µM | 0.65 µM | > 100 µM | > 100 µM | 0.83 µM | percentage of methyl green dye replaced from its complex with DNA (salmon sperm DNA): 1.87–5.98%; affinity for DNA (salmon sperm DNA): low affinity for DNA; effect on cell morphology and viability (apoptosis, chromatin condensation, DNA fragmentation) (Jurkat cells): markedly reduced viable cell numbers and enhanced nuclear fragmentation |
| COc1cc(/C=C/c2cc(Br)c(OC)c(Br)c2)cc(OC)c1OC [Compound 3, 3,5-dibromo-3′,4′,5′,4-tetramethoxy-trans-stilbene] | 76.4 µM | > 100 µM | > 100 µM | > 100 µM | 20.4 µM | – |
| CCCCCCCCCCCCCCCC[N+](C)(CCCCCCCCCCCCCCCC)CNC(=O)c1cc(OC)c(OC)c(OC)c1/C=C/c1cc(OC)c(OC)c(OC)c1 [VII, quaternary amine derivative chloride of 4,5,6,3′,4′,5′-hexamethoxy-trans-stilbene] | – | – | – | – | – | antitumor activity against cancer lines compared with resveratrol and tamoxifen [7]: higher antitumor activity |
| COc1ccc(/C=C/c2cc(OC)c(OC)c(OC)c2)cc1Br [Compound 4, 3-bromo-3′,4′,5′,4-tetramethoxy-trans-stilbene] | 2.85 µM | 0.76 µM | > 100 µM | > 100 µM | 5.21 µM | GI50 lung-NSC NCI-H460 (lung-NSC NCI-H460): 0.36 µg/mL (≈ 0.949 µM); GI50 prostate DU-145 (prostate DU-145): 0.45 µg/mL (≈ 1.19 µM); percentage of methyl green dye replaced from its complex with DNA (salmon sperm DNA): 1.87–5.98%; affinity for DNA (salmon sperm DNA): low affinity for DNA; effect on cell morphology and viability (apoptosis, chromatin condensation, DNA fragmentation) (Jurkat cells): induced moderate apoptosis; GI50 neuroblast SK-N-SH (neuroblast SK-N-SH): 0.40 µg/mL (≈ 1.05 µM); GI50 pancreas BXPC-3 (pancreas BXPC-3): 0.34 µg/mL (≈ 0.897 µM) |
| Oc1ccccc1/C=C/c1cc[n+](Cc2ccccc2Br)cc1.[Br-] [IX, 1-(2-bromobenzyl)-4-[(E)-2-(2-hydroxyphenyl)ethenyl]pyridinium bromide] | – | – | – | – | – | activity against Staphylococcus aureus 209P [8]: promising activity |
| COc1cc(/C=C/c2cc(Br)cc(Br)c2)cc(OC)c1OC [Compound 6, 3,5-dibromo-3′,4′,5′-trimethoxy-trans-stilbene] | 3.75 µM | 65.3 µM | > 100 µM | > 100 µM | 9.97 µM | – |
| COc1cc(Br)c(/C=C/c2cc(OC)c(OC)c(OC)c2)cc1OC [Compound 5, 2-bromo-3′,4′,5′,4,5-pentamethoxy-trans-stilbene] | 51.7 µM | 68.5 µM | > 100 µM | > 100 µM | 71.1 µM | – |
| COc1cc(/C=C/c2ccc(Br)cc2)cc(OC)c1OC [Compound 1, 4-bromo-3′,4′,5′-trimethoxy-trans-stilbene] | 3.2 µM | 2.26 µM | > 100 µM | > 100 µM | 6.63 µM | IC50 [9]: 6.36 µM; MIC toward Mucor indicus (Mucor indicus): 25 µg/mL (≈ 71.6 µM) |
| CSc1ccc(/C=C/c2ccccc2SC)cc1 [VI, 2,4′-dimethylthio-trans-stilbene] | – | – | – | – | – | IC50 (P450 CYP1B1 isoform): 0.026 µM |
| COc1cc(OC)c(OC)cc1/C=C/c1ccc(OC)c(OC)c1 [Compound 10, 2,3’,4,4’,5-pentamethoxy-trans-stilbene] | > 100 µM | 8.95 µM | > 100 µM | > 100 µM | 91.6 µM | – |
| COc1ccc(/C=C(\C#N)c2cc(OC)c(OC)c(OC)c2)cc1OC [Z isomer of compound XII, reference compound] | – | – | – | – | – | IC50 [9]: 0.03 µM |

Source: publication PMC12735739, “Bromo Analogues of Active 3,4,5,4′-Tetramethoxy-trans-stilbene (DMU-212)—A New Path of Research to Anticancer Agents” (Molecules, 2025)
